# According to patent publication US11896593B2, “Sulfamate derivative compounds for use in treating or alleviating a psychiatric disorder” (Bio-Pharm Solutions Co., Ltd., priority 2020, dated 2024):
# Marks after values point to notes of the source that are not given here.
# Assays:
# Format in all cases: in vivo
# ICR male mice = experiment: Light dark choice test; conditions: mouse, 60 minutes before testing
# Description: The light-dark choice test is a model for anxiety-like behavior. This test is based on innate aversion of rodents to brightly lit areas and their voluntary exploration behaviors for light stress factors, that is, new environments and light. ICR male mice (30 g to 35 g) were purchased from Orient Bio Korea Co. (Korea) and allowed to acclimatize for 1 week before being tested in a controlled animal facility (temperature 22±2° C., humidity 55±5%). When treatment began, the weight of the animals was 35±5% g. The test compound for oral administration was dissolved in 30% PEG400 and administered at a dose per body weight of 10 mL/kg 60 minutes before testing. The test compound for intraperitoneal administration was dissolved in 20% Tween80 and administered at a dose per body weight of 10 mL/kg 60 minutes before testing. The control group was provided with a corresponding vehicle. An acryl box (45 cm×27 cm×27 cm) was composed of 2 chambers (white color: ⅔ of the box, black color: ⅓ of the box) connected by an opening (7.5 cm×7.5 cm) located at the bottom surface of the center of a partition wall. Each mouse was placed in the white part of the box and allowed to roam freely for a 5-minute session. At the end of the session, mice were returned to their habitat cage, and the experimental box was cleanly wiped with a 70% alcohol solution. All experiments were videotaped. After testing, all video recordings were analyzed. The obtained results are shown in Table 5 below (Reference; Bourin, M., Hascoet, M. 2003. The mouse light/dark box test. European Journal of Pharmacology, 463, 55-65. Bouwknecht, J A., Paylor, R. 2002. Behavioral and physiological mouse assays for anxiety: a survey in nine mouse strains. Behavioural Brain Research, 136, 489-501.).
# Wistar male rats = experiment: Forced swim test (rat, rFST); conditions: for Immobile posture time (sec.)/4 minutes, Treatment: rat, administered orally 60 minutes before testing
# Description: In order to determine the anti-depressant effect in rodents, the forced swim test was performed with rats and mice. The forced swim test causes an immobile state by forcing an animal to swim in a confined space. It reflects a state of despair giving up evading such a circumstance. ICR male mice (25 g to 30 g) and Wistar male rats (240 g to 260 g) were purchased from Samtako Bio Korea Co. (Korea) and allowed to acclimatize for 1 week before being tested in a controlled animal facility (temperature 22±2° C., humidity 55±5%). The test compound was dissolved in 20% Tween80 and administered orally 60 minutes before testing. The control group was provided with a corresponding vehicle. […] 15 minutes of forced swimming was performed a day before the experiment. On the day of the experiment, the animal was placed in the cylinder 60 minutes after the administration of the compound and was videotaped for 6 minutes. In the recorded videos, time during which the animal placed its head on the water and remained still without movement was measured based on the remaining 4 minutes excluding the first 2 minutes. It was evaluated that the lower the value of the immobile posture time, the greater the anti-depressant action (Reference; Porsolt R D, Le Pichon M. Jalfre M. 1997. Depression: a new animal model sensitive to antidepressant treatments. Nature. April 21; 266(5604):730-2.).
# The result was shown as the standard error of measurement (SEM) of mean value t mean value. Behavioral data were analyzed by one-way ANOVA. For statistical significance, a value of <0.05 was taken (***p<0.001, **p=0.001˜0.01, *p=0.01˜0.05). Data management and statistics were performed using the Prism software of Windows version 4 (GraphPad Softward Co., San Diego, CA, USA).
# Based on the results of Table 7, the ED50 value of the compound of Example 2 was calculated and shown in Table 7, and after 30 mg/kg and 60 mg/kg of the compounds of the other remaining examples were administered based on TD50 values to perform the forced swim tests, respectively, the administration doses with protected efficacy and protection % at the corresponding administration doses were shown in Table 7.
# [1] = system: rats that gave birth, chronic administration of corticosterone; experiment: PPD (chronic CORT induced PPD model), forced swim test; conditions: postpartum depression rat, 30 mg/kg, intraperitoneally 15 minutes before testing
# Description: In order to confirm the effect on postpartum depression in rats, the forced swim test was conducted after chronic administration of corticosterone, a depression-causing substance, to rats that gave birth. The forced swim test causes an immobile state by forcing an animal to swim in a confined space. It reflects a state of despair giving up evading such a circumstance. Rats on the 15th day of pregnancy were purchased from Koatech (Korea) and allowed to acclimatize for 1 week before being tested in a controlled animal facility (temperature 22±2° C., humidity 55±5%). […] In the recorded videos, the time during which the animal placed its head on the water and remained still without movement was measured based on the remaining 4 minutes excluding the first 2 minutes. It was evaluated that the lower the value of the immobile posture time, the greater the anti-depressant action (Reference; S. Brummelte et al. Chronic corticosterone during pregnancy and affects maternal care, cell proliferation and depressive-like behavior in the dam. Hormones and Behavior 58 (2010) 769˜779, Porsolt R D, Le Pichon M, Jalfre M. 1997. Depression: a new animal model sensitive to anti-depressant treatments. Nature. April 21; 266(5604):730˜2.).
# The result was shown as the standard error of measurement (SEM) of mean value±mean value. Behavioral data were analyzed by one-way ANOVA. […]
compound,measurement,setting,value
"CC1(C)O[C@@H](COS(N)(=O)=O)[C@H](c2ccccc2Cl)O1 [Example 2, ((4S,5S)-5-(2-chlorophenyl)-2,2-dimethyl-1,3-dioxolan-4-yl)methyl sulfamate]","White box duration time (sec.)/5 minutes, Treatment","ICR male mice; intraperitoneal, 10 mg/kg",189.0 ± 10.8 sec./5 minutes
same,"White box duration time (sec.)/5 minutes, Treatment","ICR male mice; intraperitoneal, 30 mg/kg",208.1 ± 13.2 sec./5 minutes
same,"White box duration time (sec.)/5 minutes, Treatment","ICR male mice; intraperitoneal, 40 mg/kg",219.2 ± 13.3 sec./5 minutes
same,"White box duration time (sec.)/5 minutes, Treatment","ICR male mice; oral, 10 mg/kg",136.4 ± 4.2 sec./5 minutes
same,"White box duration time (sec.)/5 minutes, Treatment","ICR male mice; oral, 30 mg/kg",140.0 ± 12.3 sec./5 minutes
same,"White box duration time (sec.)/5 minutes, Treatment","ICR male mice; oral, 40 mg/kg",193.1 ± 8.7 sec./5 minutes
same,ED50,"Wistar male rats; rat forced swim test, po",13.3 mg/kg
same,"Immobile posture time (sec.)/4 minutes, Treatment",Wistar male rats; 5 mg/kg,160.7 ± 3.8 sec./4 minutes
same,"Immobile posture time (sec.)/4 minutes, Treatment",Wistar male rats; 10 mg/kg,117.3 ± 12.2** sec./4 minutes
same,"Immobile posture time (sec.)/4 minutes, Treatment",Wistar male rats; 20 mg/kg,51.0 ± 11.6** sec./4 minutes
same,"Immobile posture time (sec.)/4 minutes, Treatment",[1],5.07 sec./4 minutes
